Where a name gives a salt, the structure may show the parent alone.
Assays:
[1] = molecular target: FXa (Homo sapiens, UniProt P00742); experiment: Factor Xa inhibition (FXa-IC50); assay type: biochemical
From the text: The inhibition of factor Xa by the compounds according to the invention and the measurement of the anticoagulant and antithrombotic activity can be determined by conventional in-vitro or in-vivo methods. A suitable method is described, for example, by J. Hauptmann et al. in Thrombosis and Haemostasis 1990, 63, 220–223.
The inhibition of factor Xa can be measured, for example, by the method of T. Hara et al. in Thromb. Haemostas. 1994, 71, 314–319.

[2] = molecular target: TF/FVIIa (Homo sapiens, UniProt P08709); experiment: TF/FVIIa inhibition (TF/FVIIa-IC50); assay type: biochemical
Sequence of TF/FVIIa (P08709 213-466 limits assumed): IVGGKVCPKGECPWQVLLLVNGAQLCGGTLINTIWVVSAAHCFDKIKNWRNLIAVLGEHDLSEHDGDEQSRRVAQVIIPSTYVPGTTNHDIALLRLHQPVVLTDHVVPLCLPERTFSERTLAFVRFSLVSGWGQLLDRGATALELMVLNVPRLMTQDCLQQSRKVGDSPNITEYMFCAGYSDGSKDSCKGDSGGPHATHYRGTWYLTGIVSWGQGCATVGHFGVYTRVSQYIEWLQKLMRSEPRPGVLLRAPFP
Sequence of TF/FVIIa (P08709 61-212 partner limits assumed): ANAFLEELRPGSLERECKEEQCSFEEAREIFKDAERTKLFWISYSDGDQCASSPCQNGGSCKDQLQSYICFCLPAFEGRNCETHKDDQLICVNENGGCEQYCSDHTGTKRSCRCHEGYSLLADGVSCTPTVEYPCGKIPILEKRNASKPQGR
Sequence of TF/FVIIa (P13726 33-295 partner): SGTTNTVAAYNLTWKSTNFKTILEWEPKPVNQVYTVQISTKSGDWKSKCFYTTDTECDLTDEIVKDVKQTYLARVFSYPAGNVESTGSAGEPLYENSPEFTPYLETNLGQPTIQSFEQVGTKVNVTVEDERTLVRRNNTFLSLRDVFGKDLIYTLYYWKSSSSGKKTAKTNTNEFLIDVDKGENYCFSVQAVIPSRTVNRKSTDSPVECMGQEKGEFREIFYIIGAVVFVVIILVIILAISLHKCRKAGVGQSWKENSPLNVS
From the text: The inhibition of factor VIIa by the compounds according to the invention and the measurement of the anticoagulant and antithrombotic activity can be determined by conventional in-vitro or in-vivo methods. A conventional method for the measurement of the inhibition of factor VIIa is described, for example, by H. F. Ronning et al. in Thrombosis Research 1996, 84, 73–81.

Sequence of FXa (P00742 235-488 limits assumed): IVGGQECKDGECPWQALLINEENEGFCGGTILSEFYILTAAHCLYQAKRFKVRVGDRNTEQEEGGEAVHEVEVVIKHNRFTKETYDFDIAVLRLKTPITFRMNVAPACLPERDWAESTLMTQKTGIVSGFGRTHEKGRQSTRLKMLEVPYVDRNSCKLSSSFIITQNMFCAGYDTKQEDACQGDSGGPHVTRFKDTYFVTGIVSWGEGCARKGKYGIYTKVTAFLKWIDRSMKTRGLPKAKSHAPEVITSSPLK
Sequence of FXa (P00742 41-179 partner limits assumed): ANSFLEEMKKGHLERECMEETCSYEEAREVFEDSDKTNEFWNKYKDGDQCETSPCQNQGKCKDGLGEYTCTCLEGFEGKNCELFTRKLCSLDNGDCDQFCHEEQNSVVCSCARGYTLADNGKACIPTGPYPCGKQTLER

Row | SMILES | IC50 [1] | IC50 [2]
1 | CON=C1CCCCN1c1ccc(NC(=O)[C@H](OC(=O)Nc2ccc(Cl)cc2)c2ccccc2)cc1 [AA, (R)-2-[N-(4-chlorophenyl)carbamoyloxy]-N-[4-(2-methoxyiminopiperidin-1-yl)phenyl]-2-phenylacetamide] | 220 nM | 290 nM
2 | Cc1cc(NC(=O)[C@H](NC(=O)Nc2ccc(Cl)cc2)c2ccccc2)ccc1N1CCCC1=N [BA, (R)-2-[3-(4-chlorophenyl)ureido]-N-[4-(2-iminopyrrolidin-1-yl)-3-methylphenyl]-2-phenylacetamide, hydrochloride] | 680 nM | 490 nM
3 | N=C1CCCCN1c1ccc(NC(=O)[C@H](OC(=O)Nc2ccc(Cl)cc2)c2ccccc2)cc1 [AB, (R)-2-[N-(4-chlorophenyl)carbamoyloxy]-N-[4-(2-iminopiperidin-1-yl)phenyl]-2-phenylacetamid, hydrochloride] | 58 nM | 99 nM
4 | N#CN=C1NCCN1c1ccc(NC(=O)[C@@H](NC(=O)Nc2ccc(Cl)cc2)c2cccs2)cc1 [CA, (R)-2-[3-(4-chlorophenyl)ureido]-N-[4-(2-cyaniminoimidazolidin-1-yl)phenyl]-2-thiophen-2-ylacetamide] | 54 nM | –

From patent US7183277B2, “Carboxylic acid amides” (Merck Patent GmbH, priority 2002, dated 2007)
